For one series, the system named is KB-Vin10. Nature of the series: cells. The note with it: read-out: Cytotoxicity KB -Vin10. Here is the method: (§1) Cell Growth Inhibition Assay: MCF-7 breast carcinoma cells were maintained in plastic dishes in DMEM medium supplemented with 10% fetal bovine serum. For in vitro treatment, tumor cells were seeded in […] of culture medium/well in 96-well plates to a final cell density of 6 x 10^3 cell/mL and incubated in a CO2 incubator at 37 °C for 24 h. The cells were treated with at least five different concentrations of a test indole compound, and incubated in a CO2 incubator at 37 °C for 72 h. The number of viable cells was estimated using MTS assay and absorbance was measured at 490 nm. Cytotoxicity of the test compounds was expressed in terms of IC50 values. The values presented represent averages of three independent experiments, each with duplicate samples.
(§2) Indole compounds were tested against several panels of drug-resistant cell lines. It is well known that several anti-mitotic agents, including vinca alkaloid (vincristine, vinblastine) and taxol, have been introduced in clinic to treat various human cancers. […] The mechanisms responsible for taxol resistance include overexpression of p-glycoprotein and mutation of tubulin.
(§3) The mechanisms responsible for VP16-resistance (KB7D) were down-regulation of topoisomerase II and overexpression of MRP 1.

Another series deals with HONECis-6. Description: Cell growth inhibition assay on drug-resistant line HONECis-6. The settings on record: read-out: Cytotoxicity HONECis -6, 72 h. The procedure: as §1, §2, §3
The subject of another series is KB. Description: Cell growth inhibition assay (cytotoxicity), KB cell line. The settings on record: Homo sapiens, 72 h, read-out: Cytotoxicity KB. Here is the method:
as §1, §2, §3

The subject of another series is KB7DR. Description: Cell growth inhibition assay on line KB7DR. The settings on record: Homo sapiens, 72 h, read-out: Cytotoxicity KB7DR. The procedure:
as §1, §2, §3

Another series deals with KB7D. Nature of the series: cells. The settings on record: Homo sapiens, 72 h, read-out: Cytotoxicity KB7D. The procedure: as §1, §2, §3
Another series concerns HONE-1. Nature of the series: Cell growth inhibition assay (cytotoxicity), HONE-1 cell line. The settings on record: Homo sapiens, HONE1, 72 h.
The subject of the next series is KBtaxol-5. Description: Cell growth inhibition assay on drug-resistant line KBtaxol-5. The note with it: Homo sapiens, 72 h, read-out: Cytotoxicity KBtaxol -5. The procedure: as §1, §2, §3
Another series relates to KB100R. Nature of the series: Cell growth inhibition assay on line KB100R. The note with it: Homo sapiens, 72 h, read-out: Cytotoxicity KB100R. Here is the method:
as §1, §2, §3

The subject of the next series is KB100. Nature of the series: Cell growth inhibition assay on drug-resistant line KB100. The settings on record: Homo sapiens, 72 h, read-out: Cytotoxicity KB100. The procedure:
as §1, §2, §3

Another series has as its system MKN45 stomach cell line. Nature of the series: Cell growth inhibition assay (cytotoxicity), MKN45. The note with it: Homo sapiens, MKN-45, Table 2, MTS, 72 h. Type of series: cell-based. The procedure:
(§4) In addition, indole compounds described in the "Summary" section were also tested on the A549 lung cell line, MESSA uterine cell line, MKN45 stomach cell line, SW480 colon cell line, NUGC3 stomach cell line, and MESSA/DX5 uterine cell line.

Another series relates to Human MKN45 cancer cells. Nature of the series: Tumor regression model, MKN45 xenograft. Type of series: in vivo, Male CD 1 nude mice. Here is the method:
(§5) Tumor Regression Models: The procedures of cancer cell implantation were similar to those previously reported in Chen et al., Cancer Res., (1998) 58:2777-2783, with modifications. Male CD 1 nude mice (5~6 weeks old) were purchased from Charles River Laboratories (Wilmington, MA, USA). Human MKN45 and KB cancer cells were maintained in RPMI 1640 plus 10% fetal bovine serum. Each animal was subcutaneously implanted with 5×10^5 MKN45 or 1×10^6 KB cells in 0.1 ml at one flank. Tumor growth was examined three times a week after implantation. The volume of tumor was measured with a caliper and calculated as 1/2×length×width^2 in mm^3. Test compounds were dissolved completely in a vehicle mixture of dimethyl sulfoxide:cremophor:saline (1:4:15). When the size of a growing tumor reached approximately 100 mm^3, the mice were treated with test compounds intravenously from tail veins at a concentration of 50 mg/kg daily for two weeks. Mice in a control group were treated with the solvent vehicle only. Tumor sizes and body weights were measured twice a week and after the mice were sacrificed.

Another series has as its system SW480 colon cell line. Description: Cell growth inhibition assay (cytotoxicity), SW480. The settings on record: Homo sapiens, Table 2, MTS, 72 h. It is filed as cell-based. The procedure: as §4
The subject of a further series is A549 lung cell line. Description: Cell growth inhibition assay (cytotoxicity), A549. It is filed as cell-based. The note with it: Homo sapiens, Table 2, MTS, 72 h. Here is the method:
as §4

The subject of series [1] is MCF-7 breast carcinoma cells. Description: Cell growth inhibition assay (cytotoxicity), MCF7. It is filed as cell-based. The note with it: Homo sapiens, Table 2, MTS, 72 h. Here is the method:
In one assay, an indole compound is tested for its cytotoxicity on MCF-7 cells (a breast carcinoma cell line). More specifically, cells are incubated with a test compound for 24 hr. The cytotoxic effect can be determined using the MTS (3-(4,5-dimethylthiazol-2-yl)-5-(3-carboxymethoxyphenyl)-2-(4-sulfophenyl)-2H-tetrazolium, inner salt) assay method described in Goodwin et al. (1995, J. Immunol. Methods. 179: 95-103). Cytotoxicity of the test compound is expressed in terms of IC50 values (i.e., the concentration of the test compound which achieves a half-maximal inhibition of cell growth).

The test system of a further series is MESSA uterine cell line. Description: Cell growth inhibition assay (cytotoxicity), MESSA. It is filed as cell-based. The note with it: Homo sapiens, MES-SA, Table 2, MTS, 72 h. Here is the method:
as §4

In series [2] the test system is MESSA/DX5 uterine cell line. Description: Cell growth inhibition assay (cytotoxicity), MESSA/DX5. It is filed as cell-based. The note with it: Homo sapiens, MES-SA/Dx5, Table 2, MTS, 72 h. Here is the method:
as §4

The subject of another series is Human KB cancer cells. Nature of the series: Tumor regression model, KB xenograft. The note with it: Compound 1 and cisplatin together vs cisplatin alone. Type of series: in vivo, Male CD 1 nude mice. Here is the method:
as §5

A further series has as its system NUGC. Nature of the series: Cell growth inhibition assay (cytotoxicity), NUGC. It is filed as cell-based. The note with it: Homo sapiens, Table 2, Stomach, MTS, 72 h. The procedure: as §4

Each structure is given as a SMILES string. Like-named read-outs stand apart in the source and are kept apart here.

For `N.N.[Cl][Pt][Cl]` [Cisplatin, reference compound], the IC50 was found to be 5 nM in the series on KB-Vin10 (Table 1, Vin. Res, MTS, 72 h) and 15000 nM with HONECis-6 (Table 1, Cis Res., MTS).

Take `COc1ccc2c(C(=O)c3cc(OC)c(OC)c(OC)c3)cn(C(=O)OC(C)(C)C)c2c1` [Compound 6, 6-methoxy-3-(3,4,5-trimethoxy-benzoyl)-indole-1-carboxylic acid tert-butyl ester]: the IC50 was determined as 13 nM in the series with KB; 15 nM with KB7DR; 8 nM in the series on KB7D; 9.6 nM in the series on KB-Vin10 (Homo sapiens, KB-VIN10, 72 h); 19 nM in the series with HONE-1 (read-out: Cytotoxicity HONE -1); 19 nM in the series with HONECis-6 (Homo sapiens). Moreover, the results for the IC50 in the series on KBtaxol-5, in the series on KB100R and with KB100 were 37 nM, 18 nM and 18 nM, respectively.

With `COc1cc([C@@H]2c3cc4c(cc3[C@@H](O[C@@H]3O[C@@H]5CO[C@@H](C)O[C@H]5[C@H](O)[C@H]3O)[C@H]3COC(=O)[C@H]23)OCO4)cc(OC)c1O` [VP-16], the IC50 stood at 500 nM in the series with KB, 3500 nM with KB7DR and 44000 nM in the series on KB7D.

As for `CC[C@@]1(O)C(=O)OCc2c1cc1n(c2=O)Cc2cc3ccccc3nc2-1` [CPT, camptothecin], the IC50 with KB worked out at 26 nM; in the series on KB7D, 133 nM; in the series on KB-Vin10 (Homo sapiens, KB-VIN10, 72 h) it was 400 nM; in the series on KB100, 1290 nM.

Regarding `CC[C@]1(O)C[C@H]2CN(CCc3c([nH]c4ccccc34)[C@@](C(=O)OC)(c3cc4c(cc3OC)N(C=O)[C@H]3[C@@](O)(C(=O)OC)[C@H](OC(C)=O)[C@]5(CC)C=CCN6CC[C@]43[C@@H]65)C2)C1` [Vincristine, reference compound], the IC50 turned out to be 1 nM with KB; 337 nM with KB7DR; 1920 nM in the series with KB7D; 43 nM with KB-Vin10 (Homo sapiens, KB-VIN10, 72 h); 0.5 nM in the series with HONE-1 (read-out: Cytotoxicity HONE -1); 0.6 nM in the series on HONECis-6 (Homo sapiens).

In the case of `CC(=O)O[C@H]1C(=O)[C@@]2(C)[C@H]([C@H](OC(=O)c3ccccc3)[C@]3(O)C[C@H](OC(=O)[C@H](O)[C@@H](NC(=O)c4ccccc4)c4ccccc4)C(C)=C1C3(C)C)[C@]1(OC(C)=O)CO[C@@H]1C[C@@H]2O` [Taxol, paclitaxel, reference compound], the IC50 in the series with KB is 10 nM; in the series with KBtaxol-5 it was 80 nM.

For the molecule `COc1ccc2c(C(=O)c3cc(OC)c(OC)c(OC)c3)c[nH]c2c1` [Compound 1, (6-methoxy-1H-indol-3-yl)-(3,4,5-trimethoxy-phenyl)-methanone], the IC50 with MKN45 stomach cell line is 4 nM; with KB, 6 nM; with KB7DR, 6 nM; with SW480 colon cell line it was 3 nM; with A549 lung cell line it was 17 nM; in the series on KB7D, 4 nM. Moreover, the IC50 is 7 nM in the series with KB-Vin10 (Homo sapiens, KB-VIN10, 72 h); 4 nM in the series with HONE-1 (read-out: Cytotoxicity HONE -1); 4 nM with HONE-1 (read-out: Cytotoxicity HONE-1); 4.5 nM with HONECis-6 (Homo sapiens); 7.6 nM in series [1]; 7 nM in the series on MESSA uterine cell line. Also, the IC50 was found to be 3.8 nM in [2]; 3 nM in the series on NUGC; 7 nM with KBtaxol-5; 12 nM in the series with KB100R; 8 nM with KB100. Further, the “activity in inhibiting tumor growth, administered together with cisplatin” value in the series on Human MKN45 cancer cells (Compound 1 and cisplatin together vs cisplatin alone) was “higher activity in inhibiting tumor growth than cisplatin administered alone”; in the series on Human KB cancer cells it was “higher activity in inhibiting tumor growth than cisplatin administered alone”. The “activity in inhibiting tumor growth” value in the series on Human MKN45 cancer cells (intravenously 50 mg/kg daily for two weeks, compared with cisplatin) is reported as “higher activity in inhibiting tumor growth than cisplatin”.

(Values after EP1506960B1, “Indole compounds as inhibitors of tubulin polymerisation for the treatment of angiogenesis-related disorders” (National Health Research Institutes, priority 2003, dated 2005).)
